Test results taken from patent publication US20240076440A1, “PROCESS OF FORMING A CONJUGATED POLYMER” (Sumitomo Chemical Co., ltd., priority 2019, published 2024).

Assay: Solubilities of Monomers 1 and 2 in toluene, MeOH and water
Type: physicochemical

Structure (SMILES)	Solubility in Toluene (Conc 0.1 mg/ml)	Solubility in Toluene (Conc 1 mg/ml)	Solubility in Water (Conc 1 mg/ml)	Solubility in MeOH (Conc 50 mg/ml)	Solubility in Water (Conc 50 mg/ml)	Solubility in MeOH (Conc 0.1 mg/ml)	Solubility in MeOH (Conc 1 mg/ml)	Solubility in MeOH (Conc 75 mg/ml)	Solubility in Toluene (Conc 75 mg/ml)	Solubility in Toluene (Conc 1 g/ml)	Solubility in Toluene (Conc 2 g/ml)
C[N+](C)(C)CCC1(CC[N+](C)(C)C)c2cc(Br)ccc2-c2ccc(Br)cc21 [Monomer 2]	Insoluble	Insoluble	Soluble	Soluble	Insoluble						
CCCCCCCCC1(CCCCCCCC)c2cc(B3OCCO3)ccc2-c2ccc(B3OCCO3)cc21 [Monomer 1]	Soluble	Soluble	Insoluble	Soluble		Soluble	Soluble	Not Soluble	soluble	Soluble	Soluble
